Source: US9890111B2, “Crystal structure of bifunctional transglycosylase PBP1b from E. coli and inhibitors thereof” (Academia Sinica, priority 2008, dated 2018)
≈ marks a conversion by molar mass, not a printed value. Read-outs that look alike come from different tables or passages of the source.

Columns and labels:
[1] = biological target: T1, penicillin-binding protein 1b from E. coli (transglycosylase) (Escherichia coli, UniProt P02919); experiment: Lipid II polymerization / transglycosylase (TG) activity assay; assay type: biochemical; conditions: for remaining activity at 100 µM: read-out: TG Activity at various concentration of cmpd: 100 μM; for TG Activity at various concentration of cmpd: 50 μM: 50 μM compound; for TG Activity at various concentration of cmpd: 50 μM / TG Activity at various concentration of cmpd: 100 μM / TG Activity at various concentration of cmpd: 25 μM: TG activity remaining (0% = full inhibition); for TG Activity at various concentration of cmpd: 100 μM: 100 μM compound; for remaining activity at 50 µM: read-out: TG Activity at various concentration of cmpd: 50 μM; for TG Activity at various concentration of cmpd: 25 μM: 25 μM compound
T1 construct: PBP1b[58-804] was amplified from E. coli genomic DNA and cloned into the expression vector pET15b; His6 (N, cleaved yes); made in house; host or cells: E. coli BL21(DE3)
T1 sequence (P02919 58-804): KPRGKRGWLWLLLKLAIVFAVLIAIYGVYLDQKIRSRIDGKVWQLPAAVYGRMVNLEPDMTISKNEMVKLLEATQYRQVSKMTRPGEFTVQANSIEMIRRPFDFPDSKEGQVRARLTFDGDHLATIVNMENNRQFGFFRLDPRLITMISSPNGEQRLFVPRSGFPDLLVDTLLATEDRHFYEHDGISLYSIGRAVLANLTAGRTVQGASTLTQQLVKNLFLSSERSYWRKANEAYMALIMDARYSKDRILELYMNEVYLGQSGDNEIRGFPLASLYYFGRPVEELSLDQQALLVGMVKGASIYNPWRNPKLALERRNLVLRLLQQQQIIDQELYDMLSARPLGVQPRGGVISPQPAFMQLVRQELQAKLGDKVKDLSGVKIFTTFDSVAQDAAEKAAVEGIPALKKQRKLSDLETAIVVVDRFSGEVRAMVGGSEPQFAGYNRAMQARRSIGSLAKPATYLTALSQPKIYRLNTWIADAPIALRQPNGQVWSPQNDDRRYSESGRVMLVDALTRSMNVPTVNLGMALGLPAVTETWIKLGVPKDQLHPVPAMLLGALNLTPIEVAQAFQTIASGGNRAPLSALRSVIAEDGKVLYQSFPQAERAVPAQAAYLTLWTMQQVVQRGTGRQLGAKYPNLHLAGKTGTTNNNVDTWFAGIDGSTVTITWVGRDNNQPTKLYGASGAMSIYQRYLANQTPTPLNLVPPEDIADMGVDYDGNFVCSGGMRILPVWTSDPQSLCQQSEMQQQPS
Description: Lipid II polymerization assays were carried out by incubating 100 μM fluorophore-labeled lipid II and penicillin-binding protein 1b from E. coli in tubes containing 10 ng/μL N-acetyl muramidase in 50 mM Tris.HCl (pH 8.0), 10 mM MgCl2, 0.1% Triton X-100, 10% DMSO, and 15% MeOH for 30 minutes (Van Nieuwenhze et al. J Am Chem Soc 2002, 124, 3656.). The fluorophore can be dansyl chloride, NBD, BODIPY, fluorescein. Reaction supernatants were then injected onto an anion-exchange HPLC column (SAX1, Supelco Co.) and eluted with a linear gradient of ammonium acetate (20 mM to 0.5 M) in methanol. The eluant was monitored for fluorescence with λex=466 nm and λem=535 nm.
Purified protein was concentrated in 20 mM Tris-HCl (pH 8.0), 300 mM NaCl, and 1 mM DDM. Instead of using Dansyl lipid II, 6-(N-(7-nitrobenz-2-oxa-1,3-diazol-4-yl)amino) hexanoyl (NBD)-labeled Lipid II was prepared as described (Taubes G (2008) Science 321:356-361; Payne D J (2008) Science 321:1644-1645) and used as a substrate to measure TG enzymatic activity, with approach similar to what has been described previously (Holtje J V (1998) Microbiol Mol Biol Rev 62:181-203). Assays were carried out by using the following condition: NBD-Lipid II, 20 nM protein, 50 mM Tris HCl (pH 8.0), 10 mMCaCl2, 0.085% decyl PEG (Anatrace), and 15% MeOH at 37° C. for 0, 1, 3, 5, 7, 9, 20, and 30 min. The concentration of NBD-Lipid II was varied from 1 to 100 μM to determine the rate of the TG activity. After the reaction, 200 μM moenomycin was added to stop the reaction, and 13 μM muramidase (Sigma-Aldrich) was added to digest the TG products to result in NBD-Lipid II without lipid tails. The fluorescent signal decrease of substrate and increase of NBD-Lipid II without lipid tails were detected by anion-exchange column SAX1 (Supelco) on HPLC (Hitachi). The elution procedures was a linear gradient of ammonium acetate (20 mM to 1 M) in MeOH monitored at λexcitation=466 nm and λemission=535 nm. The kinetic parameter was estimated by following the Michaelis-Menten equation. To investigate the importance of transmembrane (TM) helix, PBP1b and PBP1bΔTM (residues Met-1 to Leu-87 were removed) were extracted with the buffer containing 20 mM Tris-HCl (pH 8.0), 300 mM NaCl, and 13 mM FOS-CHOLINE-14 (Anatrace). The protein was purified by nickel chelation chromatography in the presence of 1 mM DDM. The activity assay was carried out by using the following condition: 12 μM NBD-Lipid II, 20 nM protein, 50 mM Tris-HCl (pH 8.0), 10 mM CaCl2, 0.085% decyl PEG, and 15% MeOH at 37° C. for time 0, 1, 3, 5, 7, 9, 20, and 30 min. The initial velocity was used to compare the activity of full-length PBP1b and PBP1bΔTM.

[2] = system: Staphylococcus aureus (ATCC29213, SA); experiment: Minimal inhibitory concentration (MIC), SA; assay type: cell-based; conditions: for MIC: Staphylococcus aureus; for MIC SA: Staphylococcus aureus ATCC29213
Description: (§1) The minimal inhibitory concentration (MIC) of tested compounds was determined following the NCCLS standard. The experiments were conducted in 96-well microtiter plates using two-fold dilutions in Muller-Hilton broth with (Streptococcus pneumonia) or without blood (Bacillus subtilis, Enterococcus faecalis, Staphylococcus aureus, Escherichia coli, MRSA, Actinetobacter baumannii, Pseudomonas aeruginosa, Stenotrophomonas maltophilia, and Mycobacterium smegmatis). Exponentially growing cells at 5×10^5 cells/ml were incubated with test compounds at various concentrations. After an 18 h to 24 h incubation at 37° C., MIC was determined as the minimal concentration of the compound that prevents bacterial growth.

[3] = system: methicillin-resistant Staphylococcus aureus (ATCC33592, MRSA); experiment: Minimal inhibitory concentration (MIC), MRSA; assay type: cell-based; conditions: for MIC: Staphylococcus aureus, read-out: MIC MRSA
Description: as §1

[4] = system: Mycobacterium smegmatis (ATCC11565, MS); experiment: Minimal inhibitory concentration (MIC), MS; assay type: cell-based; conditions: for MIC: Mycolicibacterium smegmatis; for MIC MS: Mycobacterium smegmatis ATCC11565
Description: as §1

[5] = system: Escherichia coli (ATCC 25922, EC); experiment: Minimal inhibitory concentration (MIC), EC; assay type: cell-based
Description: as §1

[6] = ATCC29213, Staphylococcus aureus ATCC29213, read-out: MIC SA
[7] = methicillin-resistant Staphylococcus aureus ATCC33592
[8] = ATCC11565, Mycobacterium smegmatis ATCC11565, read-out: MIC MS
[9] = ATCC25922, Escherichia coli ATCC 25922, read-out: MIC EC

| Compound | remaining activity at 100 µM [1] [%] | TG Activity at various concentration of cmpd: 50 μM [1] [%] | TG Activity at various concentration of cmpd: 100 μM [1] [%] | MIC SA [2] [µg/mL] | MIC MRSA [3, 7] [µg/mL] | MIC MS [4] | MIC EC ([5]; Escherichia coli ATCC 25922) [µg/mL] | also measured |
| --- | --- | --- | --- | --- | --- | --- | --- | --- |
| O=C(Nc1cc(Cl)c(Cl)c(Cl)c1)c1cc(Br)cc(Br)c1O [Compound 001] | 100 |  |  |  |  |  |  | MIC [2, 6]: ≤ 0.03 µg/mL; MIC [3, 7]: 0.06 µg/mL (≈ 0.126 µM); MIC [4, 8]: ≤ 0.03 µg/mL; MIC [5, 9]: 16 µg/mL (≈ 33.7 µM) |
| O=C(Nc1ccc(Cl)c(Cl)c1)c1cc(Cl)cc(Cl)c1O [Compound 003] | 100 |  |  |  |  |  |  | MIC ([2]; ATCC29213, read-out: MIC SA): 0.25 µg/mL (≈ 0.712 µM); MIC [3]: 1 µg/mL (≈ 2.85 µM); MIC ([4]; ATCC11565, read-out: MIC MS): 0.06 µg/mL (≈ 0.171 µM); MIC ([5]; Escherichia coli, ATCC25922, read-out: MIC EC): 32 µg/mL (≈ 91.2 µM) |
| O=C(c1ccccc1)c1cc(NC(=O)c2cc(Br)cc(Br)c2O)ccc1Cl [Compound 124] |  | 100 | 0 | 1 (≈ 1.96 µM) | 1 (≈ 1.96 µM) | 1 µg/mL (≈ 1.96 µM) | >256 |  |
| O=C(Nc1cc(Cl)cc(C(=O)c2ccc(Cl)cc2)c1Cl)c1cc(Cl)cc(Br)c1O [Compound 117] |  | 100 | 0 | 0.5 (≈ 0.936 µM) | 0.5 (≈ 0.936 µM) | 0.25 µg/mL (≈ 0.468 µM) | >256 |  |
| O=C(Nc1cc(Cl)cc(C(=O)c2ccc(Cl)cc2)c1Cl)c1cc(Br)cc(Br)c1O [Compound 115] |  | 100 | 0 | 0.5 (≈ 0.864 µM) | 2 (≈ 3.46 µM) | 0.25 µg/mL (≈ 0.432 µM) | >256 |  |
| O=C(Nc1cc(Cl)ccc1O)c1ccc(Cl)c(C(=O)c2ccc(Cl)cc2)c1 [Compound 126] |  | 100 | 100 | 1 (≈ 2.38 µM) | 0.125 (≈ 0.297 µM) | 0.06 µg/mL (≈ 0.143 µM) | >256 |  |
| O=C(Nc1ccc(Oc2ccc(Cl)cc2)c(Cl)c1)c1cc(Br)cc(Br)c1O [Compound 122] |  | 60 | 0 | 0.5 (≈ 0.94 µM) | 0.25 (≈ 0.47 µM) | 0.125 µg/mL (≈ 0.235 µM) | >256 |  |
| O=C(Nc1ccc(Cl)cc1)c1cc(Br)cc(Br)c1O [Compound 118] | 100 |  |  |  | 4 (≈ 9.87 µM) |  |  | remaining activity at 50 µM [1]: 100%; MIC [2, 6]: 1 µg/mL (≈ 2.47 µM); MIC [4, 8]: 1 µg/mL (≈ 2.47 µM); MIC [5, 9]: 128 µg/mL (≈ 316 µM) |
| O=C(Nc1ccc(O)cc1)c1cc(Br)cc(Br)c1O [KTS-1] |  |  |  |  |  |  |  | remaining activity at 50 µM [1]: 70%; MIC [2, 6]: 32 µg/mL (≈ 82.7 µM); MIC [3, 7]: > 32 µg/mL; MIC [4, 8]: 16 µg/mL (≈ 41.3 µM) |
| Cc1ccc(NC(=O)c2cc(Br)cc(Br)c2O)cc1Cl [KTS-7] | 100 |  |  |  |  |  |  | remaining activity at 50 µM [1]: 100%; MIC [2, 6]: 1 µg/mL (≈ 2.38 µM); MIC [3, 7]: 1 µg/mL (≈ 2.38 µM); MIC [4, 8]: 1 µg/mL (≈ 2.38 µM) |
| O=C(Nc1cc(Cl)ccc1Cl)c1cc(Br)cc(Br)c1O [Compound 127] | 100 |  |  |  |  |  |  | remaining activity at 50 µM [1]: 100%; MIC [2, 6]: 1 µg/mL (≈ 2.27 µM); MIC [3, 7]: 1 µg/mL (≈ 2.27 µM); MIC [4, 8]: 1 µg/mL (≈ 2.27 µM); MIC [5, 9]: 64 µg/mL (≈ 145 µM) |
| O=C(c1ccc(Cl)cc1)c1cc(NC(=O)c2cc(Cl)cc(Br)c2O)c(Cl)cc1Cl [Compound 123] |  | 60 | 0 | 0.25 (≈ 0.468 µM) | 0.25 (≈ 0.468 µM) | 0.06 µg/mL (≈ 0.112 µM) | >256 |  |
| Cc1ccc(C(C)C)cc1Oc1ccc(Cl)cc1NC(=O)c1cc(Cl)cc(Br)c1O [Compound 121] |  | 0 | 0 | 0.25 (≈ 0.491 µM) | 0.125 (≈ 0.245 µM) | 0.25 µg/mL (≈ 0.491 µM) | >256 | TG Activity at various concentration of cmpd: 25 μM [1]: 90% |
| O=C(Nc1cc(Cl)c(Cl)c(Cl)c1)c1cc(Cl)cc(Cl)c1O [Compound 004] | 100 |  |  | 0.125 (≈ 0.324 µM) |  | ≦0.03 μg/ml |  | MIC [3, 7]: 0.5 µg/mL (≈ 1.3 µM); MIC [5, 9]: 16 µg/mL (≈ 41.5 µM) |
| Cc1ccc(C(C)C)c(Oc2cc(Cl)ccc2NC(=O)c2cc(Br)cc(Br)c2O)c1 [Compound 202] |  | 0 |  | 1 (≈ 1.81 µM) | 1 (≈ 1.81 µM) | 1 µg/mL (≈ 1.81 µM) |  | TG Activity at various concentration of cmpd: 25 μM [1]: 20% |
| Cc1ccc(C(C)C)cc1Oc1ccc(Cl)cc1NC(=O)c1cc(Cl)ccc1O [Compound 205] |  | 90 |  | 0.5 (≈ 1.16 µM) | 0.5 (≈ 1.16 µM) | 1 µg/mL (≈ 2.32 µM) |  |  |
| O=C(Nc1cc(Cl)cc(C(=O)c2ccccc2)c1Cl)c1cc(Br)cc(Br)c1O [Compound 116] |  | 100 | 0 | 1 (≈ 1.84 µM) | 8 (≈ 14.7 µM) | 0.5 µg/mL (≈ 0.919 µM) | >256 |  |
